Key:
Experiment in all cases: Antitumor effects in PDX mouse model of TNBC
Type in all cases: in vivo
PDX TNBC Model ST1283 = details: A 10 mg/kg SC BID 3 days on/4 off ×4, B 7.5 mg/kg PO BID×28, versus vehicle
Text: (§1) Establish PDX tumor models from viable human tumor tissue and serially passage in immunocompromised female mice a limited number of times. Using tumor fragments harvested from donor host animals, perform unilateral subcutaneous implants from a specific passage of the PDX tumor model on the flanks of the experimental animals. When tumor volumes reach approximately 150-250 mm^3 in size, randomize the animals by treatment arm by randomization techniques well known in the art and place into their respective treatment groups using 1 animal per treatment group (3 animals in an untreated group). Formulate CHK1 inhibitor, 5-(5-(2-(3-aminopropoxy)-6-methoxyphenyl)-1H-pyrazol-3-ylamino)pyrazine-2-carbonitrile methanesulfonate hydrate, (Compound A) every 14 days in 20% captisol (dissolved in water) and administer subcutaneously twice daily at a dose of 10 mg/kg on days 1/2/3 of a weekly cycle for 4 weeks (SC, BID [3 days on/4 off]×4). Formulate the PI3K/mTOR dual inhibitor, 8-[5-(1-hydroxy-1-methylethyl)pyridin-3-yl]-1-[(2S)-2-methoxypropyl]-3-methyl-1,3-dihydro-2H-imidazo[4,5-c]quinolin-2-one, (Compound B) weekly in 1% (HEC)/0.25% Tween 80 (Polysorbate 80)/0.05% Dow-Corning Antifoam 1510-US and administer by oral gavage twice-daily for 28 days (PO, BID×28) at a dose of 7.5 mg/kg. Dose combination treatment animals with both compounds according to the schedule described above for monotherapy, and dose vehicle treatment animals with vehicle according to the schedule for Compound B.
(§2) Test the combination of Compound A and Compound B, as well as their respective monotherapies, in 40 PDX models (Table 1) of TNBC. Assess antitumor efficacy of the treatment groups by measuring tumor volume via caliper measurements twice a week during the course of the study. Measure body weight twice weekly during the course of the study as a general indicator of tolerability.
(§3) Capture tumor size and body weight twice per week. Estimate tumor volume (V) by using the formula: V=(π/6)×L×W^2 where L=larger of measured diameter and W=smaller perpendicular diameter. Calculate relative tumor volume using the tumor volume measurement taken nearest to the last day of dosing for each animal (T), divided by the baseline tumor volume for that animal (T0), which is the volume recorded on or just prior to the first day of dosing, Y=T/T0. Calculate % ΔT/ΔC values using the formula % ΔT/ΔC=100(YT−1)/(YC−1), whereby YT or YC=geometric mean relative volume of the compound treated group or the control group, respectively. Tumor growth inhibition is observed in those instances where the calculated values for % ΔT/ΔC are less than 100% whereby greater inhibition results in smaller % ΔT/ΔC values. If ΔT<0, then a tumor regression value is calculated instead of % ΔT/ΔC whereby % Regression=100(YT−1). Note that negative values indicate regression. We collectively refer to % ΔT/ΔC and % Regression as % Response.
(§4) Examine relative tumor volume (final volume divided by baseline volume) on the last day of treatment or the last day on which data from all three treatment groups and vehicle is available, if it is earlier than the last day of treatment and at least 14 days after baseline. Expected additive relative volume is determined using the Bliss method (Bliss, C. I., Ann Appl Biol, 1939; 26(3):585-615). Specifically, denoting Y=relative volume, YExp=(Y1*Y2)/YV, where YExp=expected additive relative volume, Y1 and Y2 are the relative volumes in the single agent groups (Compound A and Compound B), and YV is the relative volume in the vehicle group. A range of additivity is defined around the expected additive relative volume via upper and lower limits as follows:
(§5) Yupper=max(2*YExp,YExp+0.2)
(§6) Ylower=min(YExp/2,YExp−0.2)
(§7) The upper limit of the range is the larger of 2-fold above or 20% above the expected additive relative volume, and the lower limit is the smaller of 2-fold below or 20% below the expected additive relative volume. […]

PDX TNBC Model ST821 = details: A 10 mg/kg SC BID 3 days on/4 off ×4, B 7.5 mg/kg PO BID×28, versus vehicle
Text: as §1, §2, §3, §4, §5, §6, §7

PDX TNBC Model CTG-1340 = details: PDX model CTG-1340; A 10 mg/kg SC BID 3 days on/4 off ×4; B 7.5 mg/kg PO BID×28; versus vehicle
Text: as §1, §2, §3, §4, §5, §6, §7

PDX TNBC Model ST2057 = details: A 10 mg/kg SC BID 3 days on/4 off ×4, B 7.5 mg/kg PO BID×28, versus vehicle
Text: as §1, §2, §3, §4, §5, §6, §7

PDX TNBC Model ST1077 = details: A 10 mg/kg SC BID 3 days on/4 off ×4, B 7.5 mg/kg PO BID×28, versus vehicle
Text: as §1, §2, §3, §4, §5, §6, §7

PDX TNBC Model CTG-1151 = details: PDX model CTG-1151; A 10 mg/kg SC BID 3 days on/4 off ×4; B 7.5 mg/kg PO BID×28; versus vehicle
Text: as §1, §2, §3, §4, §5, §6, §7

PDX TNBC Model CTG-0869 = details: PDX model CTG-0869; A 10 mg/kg SC BID 3 days on/4 off ×4; B 7.5 mg/kg PO BID×28; versus vehicle
Text: as §1, §2, §3, §4, §5, §6, §7

PDX TNBC Model CTG-1408 = details: PDX model CTG-1408; A 10 mg/kg SC BID 3 days on/4 off ×4; B 7.5 mg/kg PO BID×28; versus vehicle
Text: as §1, §2, §3, §4, §5, §6, §7

PDX TNBC Model CTG-1242 = details: PDX model CTG-1242; A 10 mg/kg SC BID 3 days on/4 off ×4; B 7.5 mg/kg PO BID×28; versus vehicle
Text: as §1, §2, §3, §4, §5, §6, §7

PDX TNBC Model CTG-0986 = details: PDX model CTG-0986; A 10 mg/kg SC BID 3 days on/4 off ×4; B 7.5 mg/kg PO BID×28; versus vehicle
Text: as §1, §2, §3, §4, §5, §6, §7

PDX TNBC Model ST319 = details: A 10 mg/kg SC BID 3 days on/4 off ×4, B 7.5 mg/kg PO BID×28, versus vehicle
Text: as §1, §2, §3, §4, §5, §6, §7

PDX TNBC Model ST575 = details: A 10 mg/kg SC BID 3 days on/4 off ×4, B 7.5 mg/kg PO BID×28, versus vehicle
Text: as §1, §2, §3, §4, §5, §6, §7

PDX TNBC Model ST848 = details: A 10 mg/kg SC BID 3 days on/4 off ×4, B 7.5 mg/kg PO BID×28, versus vehicle
Text: as §1, §2, §3, §4, §5, §6, §7

PDX TNBC Model MAXF 508 = details: PDX model MAXF 508; A 10 mg/kg SC BID 3 days on/4 off ×4; B 7.5 mg/kg PO BID×28; versus vehicle
Text: as §1, §2, §3, §4, §5, §6, §7

SMILES | % Rsp. (% ΔT/ΔC or % Regression) (PDX TNBC Model ST1283) [%] | % Rsp. (% ΔT/ΔC or % Regression) (PDX TNBC Model ST821) [%] | % Rsp. (% ΔT/ΔC or % Regression) (PDX TNBC Model CTG-1340) [%] | % Rsp. (% ΔT/ΔC or % Regression) (PDX TNBC Model ST2057) [%] | % Rsp. (% ΔT/ΔC or % Regression) (PDX TNBC Model ST1077) [%] | % Rsp. (% ΔT/ΔC or % Regression) (PDX TNBC Model CTG-1151) [%] | % Rsp. (% ΔT/ΔC or % Regression) (PDX TNBC Model CTG-0869) [%] | % Rsp. (% ΔT/ΔC or % Regression) (PDX TNBC Model CTG-1408) [%] | % Rsp. (% ΔT/ΔC or % Regression) (PDX TNBC Model CTG-1242) [%] | % Rsp. (% ΔT/ΔC or % Regression) (PDX TNBC Model CTG-0986) [%] | % Rsp. (% ΔT/ΔC or % Regression) (PDX TNBC Model ST319) [%] | % Rsp. (% ΔT/ΔC or % Regression) (PDX TNBC Model ST575) [%] | % Rsp. (% ΔT/ΔC or % Regression) (PDX TNBC Model ST848) [%] | % Rsp. (% ΔT/ΔC or % Regression) (PDX TNBC Model MAXF 508) [%]
CO[C@@H](C)Cn1c(=O)n(C)c2cnc3ccc(-c4cncc(C(C)(C)O)c4)cc3c21 [Compound B, 8-[5-(1-hydroxy-1-methylethyl)pyridin-3-yl]-1-[(2S)-2-methoxypropyl]-3-methyl-1,3-dihydro-2H-imidazo[4,5-c]quinolin-2-one] | 23.3 | 78.5 | 17.1 | 26.9 | 9.1 | 92.5 | 64.9 | 27.5 | 107.3 | 54.6 | 40.3 | 51.3 | 24.6 | 41.3
COc1cccc(OCCCN)c1-c1cc(Nc2cnc(C#N)cn2)n[nH]1.CS(=O)(=O)O [Compound A, 5-(5-(2-(3-aminopropoxy)-6-methoxyphenyl)-1H-pyrazol-3-ylamino)pyrazine-2-carbonitrile methanesulfonate hydrate] | 0.0 | −81.9 | 41.0 | 44.8 | 0.0 | −84.6 | 52.6 | 11.1 | 66.8 | 32.2 | 8.9 | −87.5 | −50.0 | −100.0
